According to patent US20110092591A1, “PHENYL-PRENYL DERIVATIVES, OF MARINE AND SYNTHETIC ORIGIN, FOR THE TREATMENT OF COGNITIVE, NEURODEGENERATIVE OR NEURONAL DISEASES OR DISORDERS” (NOSCIRA S.A., priority 2008, published 2011):

Columns and labels:
Format in all cases: biochemical
[1] = molecular target: T1, Recombinant human glycogen synthase kinase 3 beta (Homo sapiens, UniProt P49841); test: GSK-3 beta inhibition assay (33P-ATP, GS-2 peptide); settings: 0.5 h, percentage of the enzyme activity (remaining), read-out: % Act. GSK-3 beta; for remaining activity at 25 µM: compound at 25 μM; for remaining activity at 50 µM: compound at 50 μM
T1 sequence (P49841 whole entry): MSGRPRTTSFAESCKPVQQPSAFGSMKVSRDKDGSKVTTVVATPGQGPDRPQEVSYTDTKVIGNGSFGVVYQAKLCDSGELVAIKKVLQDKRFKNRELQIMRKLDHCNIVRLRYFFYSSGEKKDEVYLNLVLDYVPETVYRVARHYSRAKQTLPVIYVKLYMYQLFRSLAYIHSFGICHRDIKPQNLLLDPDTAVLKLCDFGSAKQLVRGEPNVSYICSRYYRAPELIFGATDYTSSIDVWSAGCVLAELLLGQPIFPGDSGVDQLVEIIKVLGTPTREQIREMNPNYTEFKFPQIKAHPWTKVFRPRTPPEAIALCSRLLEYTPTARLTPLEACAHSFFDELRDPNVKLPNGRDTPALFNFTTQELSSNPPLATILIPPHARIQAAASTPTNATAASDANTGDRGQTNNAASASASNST
Procedure: The GSK-3 beta activity of the compounds of formula (I) according to the present invention was determined by incubation of a mixture of recombinant human GSK-3 enzyme, a phosphate source and GSK-3 substrate in the presence and in the absence of the corresponding test compound, and by measuring the GSK-3 activity of this mixture. The compounds where tested at final concentrations of 25 and 50 μM.
Recombinant human glycogen synthase kinase 3 beta was assayed in MOPS 11 mM, pH 7.4, EDTA 0.2 mM, EGTA 1.25 mM, MgCl2 26.25 mM and sodium orthovanadate 0.25 mM in the presence of 62.5 μM of Phospho-Glycogen Synthase Peptide-2 (GS-2), 0.5 μCi gamma-^33P-ATP and unlabelled ATP at a final concentration of 12.5 μM. The final assay volume was 20 μl. After incubation for 30 minutes at 30° C., 15 μl aliquots were spotted onto P81 phosphocellulose papers. Filters were washed four times for at least 10 minutes each and counted with 1.5 ml of scintillation cocktail in a scintillation counter.
The compounds of formula (I) of the present invention where submitted to the above indicated assay, in order to determine their GSK-3 inhibition activity. The results are indicated in Table II, in percentage of the enzyme activity.

[2] = molecular target: T1, Recombinant human glycogen synthase kinase 3 beta; test: as above
[3] = molecular target: T2, rhBACE-1 β-Secretase recombinant human (Homo sapiens, UniProt P56817); test: BACE assay (FRET, fluorogenic peptide substrate); settings: for % BACE Activity: percentage of the enzyme activity (remaining)
T2 construct: purchased R&D Systems 931-AS
T2 sequence (P56817 46-457 limits assumed): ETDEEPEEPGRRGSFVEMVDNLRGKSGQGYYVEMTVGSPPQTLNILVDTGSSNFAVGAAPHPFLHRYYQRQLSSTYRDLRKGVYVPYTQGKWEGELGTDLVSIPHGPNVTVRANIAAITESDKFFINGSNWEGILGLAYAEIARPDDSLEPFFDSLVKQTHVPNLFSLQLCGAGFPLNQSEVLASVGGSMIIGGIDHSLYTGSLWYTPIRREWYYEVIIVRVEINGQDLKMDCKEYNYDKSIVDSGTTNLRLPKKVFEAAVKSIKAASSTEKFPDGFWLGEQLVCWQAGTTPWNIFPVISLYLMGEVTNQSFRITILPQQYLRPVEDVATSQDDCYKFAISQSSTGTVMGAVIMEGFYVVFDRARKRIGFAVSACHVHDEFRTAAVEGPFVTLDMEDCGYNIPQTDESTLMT
Source text: The aim of this assay is to determine if a compound, either synthetic or of marine origin, is a BACE-1 inhibitor, to avoid the formation of Aβ. This assay is based on FRET technology (Fluorescence Resonance Energy Transfer). FRET is used to measure cleavage of a peptide substrate, among other uses. […] When a substrate peptide cleavage occurs, the energy balance is broken and all the donor fluorescence can be observed. The increase in fluorescence is linearly related to the rate of proteolysis (Gordon, G W et al., 1998). In this assay the reaction occurs between an enzyme, purified BACE-1, and a fluorogenic peptidic substrate who present the “Swedish mutation”. The peptide cleavage by BACE-1 produces fluorescence energy and enzymatic activity can be quantified.
The reagents which are used in this assay are the following:
rhBACE-1 β-Secretase recombinant human (R&D Systems. Ref. 931-AS).
Fluorogenic Peptide Substrate IV (R&D Systems. Ref. ES004).
Beta-SECRETASE INHIBITOR H-4848. (BACHEM. Ref. H-4848.0001).
The assay is carried out in a 96 wells microplate. The final concentration of substrate is 3.5 μM per well, and the enzyme concentration is 0.5 μg/ml. The final volume of the assay is 100 μl per well and all reagents are diluted in Reaction Buffer.
The compounds are tested at a concentration of 10^−5 and 10^−6 M. The control in the assay is the commercial inhibitor β-Secretase inhibitor H-4848 from BACHEM, which is tested at 300 nM. All the samples and controls are studied by duplicate.
The plate is mixed gently and changes in the fluorescence are measured using a fluorimeter plate reader, with 320 nm excitation filter and 405 nm emission filter. The temperature should be preferably maintained between 25 and 30° C. Measurements are carried out every ten minutes during an hour. The first measure is subtracted from the last to calculate the fluorescence increase, evaluating the enzymatic activity. The 100% activity is calculated as the mean of the results of wells without sample or inhibitor.
In the cases where abnormal effects in fluorescence were detected, BACE inhibition activity was assayed using BACE-1 (beta-Secretase) FRET ASSAY KIT (Invitrogen, Ref. P2985). Fluorescence was measured with a fluorimeter plate reader, with 544 nm excitation filter and 580 nm emission filter.
Further information regarding this assay may be found in the following references, which are incorporated by reference into the present application: • Andrau, D et al; “BACE1- and BACE2-expressing human cells: characterization of beta-Amyloid precursor protein-derived catabolites, design of a novel fluorimetric assay, and identification of new in vitro inhibitors”. J Biol Chem. 2003 Jul. 11; 278(28):25859-66. • Gordon, G W et al; “Quantitative fluorescence resonance energy transfer measurements using fluorescence microscopy.” Biophys J. 1998 May; 74:2702-13.
The compounds of formula (I) of the present invention where submitted to the above indicated assay, in order to determine their BACE activity inhibition. The results are indicated in Table I, in percentage of the enzyme activity.

SMILES	remaining activity at 25 µM [1]	remaining activity at 50 µM [1]	IC50 [2]	% BACE Activity ([3]; compound at 1 μM)	% BACE Activity ([3]; compound at 10 μM)	IC50 ([3]; given in M)
CC(C)=CCC/C(C)=C/CC/C(C)=C/CC/C(C)=C/Cc1cc(C(=O)O)ccc1O [Compound 1, (2E,6E,10E)-4-Hydroxy-3-(3,7,11,15-tetramethyl-hexadeca-2,6,10,14-tetraenyl)-benzoic acid]	5.43%	2.82%	4.42 µM	45 ± 21%	0%	
COCOC(=O)c1ccc(O)c(C/C=C(\C)CC/C=C(\C)CC/C=C(\C)CCC=C(C)C)c1 [Compound 25]	9.18%	4.5%	22 µM	100%	100%	
COCOC(=O)c1ccc(OC(C)=O)c(C/C=C(\C)CC/C=C(\C)CC/C=C(\C)CCC=C(C)C)c1 [Compound 20, (2E,6E,10E)-4-Acetoxy-3-(3,7,11,15-tetramethyl-hexadeca-2,6,10,14-tetraenyl)-benzoic acid methoxymethyl ester]	51%	17.7%		100%	100%	
C/C(=C\CC/C(C)=C/CC/C(C)=C/Cc1cc(C(=O)O)ccc1O)C/C=C/C(C)(C)O [Compound 3]	52.9%	4.19%	55.8 µM			
CC(C)=CCC/C(C)=C/Cc1cc(C(=O)O)ccc1OCc1ccccc1 [Compound 27]	85.1%	65.8%		34 ± 27%	0 ± 0%	
COC(=O)c1ccc(O)c(C/C=C(\C)CC/C=C(\C)CC/C=C(\C)CCC=C(C)C)c1 [Compound 5]		70.8%				
CC(C)=CCC/C(C)=C/CC/C(C)=C/Cc1cc(C=O)ccc1O [Compound 12]	9.26%	0.95%	7.87 µM	57 ± 2%	41 ± 4%	
CC(C)=CCC/C(C)=C/CC/C(C)=C/CC/C(C)=C/Cc1cc(C=O)ccc1O [Compound 13]	52%	4.71%	17.4 µM	100%	88 ± 8.5%	
COCOc1ccc(C=O)cc1C/C=C(\C)CCC=C(C)C [Compound 8, (2E)-3-(3,7-dimethyl-octa-2,6-dienyl)-4-methoxymethoxy-benzaldehyde]	33.5%	3.08%	16 µM	100%	42 ± 5%	
CC(C)=CCC/C(C)=C/CC/C(C)=C/CC/C(C)=C/Cc1cc(C(=O)OCc2ccccc2)ccc1O [Compound 24]	49.7%	22.8%		100%	100%	
COCOc1ccc(C=O)cc1C/C=C(\C)CC/C=C(\C)CCC=C(C)C [Compound 9, (2E,6E)-4-methoxymethoxy-3-(3,7,11-trimethyl-dodeca-2,6,10-trienyl)-benzaldehyde]	61.3%	5.75%		94 ± 22%	60 ± 16%	37 µM
CC(C)=CCC/C(C)=C/CC/C(C)=C/CC/C(C)=C/Cc1cc(C(=O)OCc2ccccc2)ccc1OCc1ccccc1 [Compound 17]	71.9%	52.1%		100%	100%	
